Assay results published in PubChem BioAssay AID330 (DTP/NCI, 2004).
Where “and” joins values, the source holds several entries; their conditions need not be identical. Equal values may be shown once. Toxic doses and inconclusive results are not listed. How the source made its calls: active means survival T/C of 150% or more; inactive means T/C below 125% in these data.

Test system: P388 leukemia ip, CD2F1 mice, survival T/C
Experiment: NCI In Vivo Anticancer Drug Screen. Data for tumor model P388 Leukemia (intraperitoneal) in CD2F1 (CDF1) mice
Settings: endpoint: median survival time, higher = longer survival
Outline: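 Mice carrying the transplanted tumor received test compound or vehicle. Survival was recorded in each group, and the value is the treated-group measurement divided by that of the vehicle-treated control group.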

[1] = dose: 50.0 mg/kg/injection, schedule: Q01DX009 (ip), vehicle: Klucel (hydroxypropylcellulose) (HPC)
[2] = dose: 50.0 mg/kg/injection, schedule: Q01DX009 (ip), vehicle: saline with Tween-80
[3] = dose: 100.0 mg/kg/injection, schedule: Q01DX009 (ip), vehicle: Klucel (hydroxypropylcellulose) (HPC)
[4] = dose: 100.0 mg/kg/injection, schedule: Q01DX009 (ip), vehicle: saline with Tween-80
[5] = dose: 200.0 mg/kg/injection, schedule: Q01DX009 (ip), vehicle: Klucel (hydroxypropylcellulose) (HPC)
[6] = dose: 200.0 mg/kg/injection, schedule: Q01DX009 (ip), vehicle: saline with Tween-80
[7] = dose: 50.0 mg/kg/injection, schedule: Q01DX005 (ip), vehicle: saline with Tween-80
[8] = dose: 60.0 mg/kg/injection, schedule: Q01DX005 (ip), vehicle: saline with Tween-80
[9] = dose: 120.0 mg/kg/injection, schedule: Q01DX005 (ip), vehicle: saline with Tween-80
[10] = dose: 240.0 mg/kg/injection, schedule: Q01DX005 (ip), vehicle: saline with Tween-80
[11] = dose: 50.0 mg/kg/injection, schedule: Q01DX005 (ip), vehicle: Klucel (hydroxypropylcellulose) (HPC)
[12] = dose: 100.0 mg/kg/injection, schedule: Q01DX005 (ip), vehicle: Klucel (hydroxypropylcellulose) (HPC)
[13] = dose: 200.0 mg/kg/injection, schedule: Q01DX005 (ip), vehicle: Klucel (hydroxypropylcellulose) (HPC)
[14] = dose: 60.0 mg/kg/injection, schedule: Q01DX005 (ip), vehicle: saline
[15] = dose: 120.0 mg/kg/injection, schedule: Q01DX005 (ip), vehicle: saline
[16] = dose: 240.0 mg/kg/injection, schedule: Q01DX005 (ip), vehicle: saline

Measured: T/C

COc1ccc2c(c1)CCC1C2CCC2(C)C1CCC2(O)CCOS(=O)(=O)c1ccc(C)cc1 (stereo not given)
inactive: [1] 97 % of control | [2] 100 % of control | [3] 97 % of control | [4] 99 % of control | [5] 94 % of control | [6] 104 % of control

CCCCCCCCCCCCCCCCCC(=O)OCCN(C=O)C[n+]1ccccc1
inactive: dose: 100.0 mg/kg/injection, schedule: Q04DX002 (ip), vehicle: saline 93 % of control | dose: 200.0 mg/kg/injection, schedule: Q04DX002 (ip), vehicle: saline 120 % of control

CCOC(=O)c1nc2ccccc2c(=O)n1NC(=S)Nc1ccc(Cl)cc1
inactive: [7] 93 % of control | dose: 100.0 mg/kg/injection, schedule: Q01DX005 (ip), vehicle: saline with Tween-80 93 % of control | dose: 200.0 mg/kg/injection, schedule: Q01DX005 (ip), vehicle: saline with Tween-80 105 % of control

CC1C[As+](c2ccccc2)(c2ccccc2)CC(C)N1C.[O-][Cl+3]([O-])([O-])[O-] (stereo not given)
inactive: dose: 25.0 mg/kg/injection, schedule: Q01DX009 (ip), vehicle: saline with Tween-80 100 % of control | [2] 104 % of control | [4] 106 % of control

COC1=CC(=O)/C(=C(O)/C=C/c2ccccc2)C(=O)C1(C)C
inactive: [8] 108 % of control | [9] 115 % of control | [10] 123 % of control

CCOP(=S)(N/N=C/c1ccc2ccccc2c1O)OCC
inactive: [11] 109 % of control | [12] 106 % of control | [13] 95 % of control

N#CC1C(c2ccc(Cl)cc2)C(C(N)=O)C(=O)NC1(O)c1ccccc1 (stereo not given)
inactive: dose: 100.0 mg/kg/injection, schedule: Q04DX002 (ip), vehicle: Klucel (hydroxypropylcellulose) (HPC) 100 % of control | dose: 200.0 mg/kg/injection, schedule: Q04DX002 (ip), vehicle: Klucel (hydroxypropylcellulose) (HPC) 99 % of control | dose: 400.0 mg/kg/injection, schedule: Q04DX002 (ip), vehicle: Klucel (hydroxypropylcellulose) (HPC) 98 % of control

O=c1oc2nc(-c3ccccc3)[nH]c(=O)c2c2c1CCCC2
inactive: dose: 15.0 mg/kg/injection, schedule: Q01DX005 (ip), vehicle: Klucel (hydroxypropylcellulose) (HPC) 92 % of control | dose: 30.0 mg/kg/injection, schedule: Q01DX005 (ip), vehicle: Klucel (hydroxypropylcellulose) (HPC) 86 % of control

COc1ccc(/C=C\Cc2cc3c(cc2OCCO)OCO3)cc1
inactive: [8] 101 % of control | [9] 94 % of control | [10] 98 % of control

CC1=CC(C)C/C=C/C2C3OC3(C)C(C)C3C(Cc4c[nH]c5ccccc45)NC(=O)C23C(=O)C=CC(=O)C1O (stereo not given)
inactive: dose: 0.2 mg/kg/injection, schedule: Q01DX005 (ip), vehicle: Klucel (hydroxypropylcellulose) (HPC) 102 % of control | dose: 0.4 mg/kg/injection, schedule: Q01DX005 (ip), vehicle: Klucel (hydroxypropylcellulose) (HPC) 97 % of control | dose: 0.8 mg/kg/injection, schedule: Q01DX005 (ip), vehicle: Klucel (hydroxypropylcellulose) (HPC) 106 % of control | dose: 1.6 mg/kg/injection, schedule: Q01DX005 (ip), vehicle: Klucel (hydroxypropylcellulose) (HPC) 107 % of control | dose: 2.0 mg/kg/injection, schedule: Q01DX005 (ip), vehicle: Klucel (hydroxypropylcellulose) (HPC) 109 % of control | dose: 16.0 mg/kg/injection, schedule: Q01DX005 (ip), vehicle: Klucel (hydroxypropylcellulose) (HPC) 117 % of control

Fc1ccc(N2C(c3ccccc3)=N[C@@H](N3CCOCC3)[C@@H]2N2CCOCC2)cc1
inactive: [11] 102 % of control | [12] 100 % of control | [13] 93 % of control

CC1=CCCCC1=O
inactive: [8] 107 % of control | [9] 106 % of control | [10] 102 % of control

O=S(=O)(c1ccc(NC(=S)N2CCCCC2)cc1)N1CCCCC1
inactive: [1] 95 % of control | [3] 88 % of control | [5] 86 % of control

OCC(CO)(CO)NCCCNC(CO)(CO)CO
inactive: [14] 98 % of control | [15] 101 % of control | [16] 97 % of control

O=C(NNC(=S)NC1OCC(O)C(O)C1O)c1ccco1 (stereo not given)
inactive: [11] 99 % of control and 102 % of control | [12] 100 % of control and 102 % of control | [13] 104 % of control and 106 % of control | dose: 400.0 mg/kg/injection, schedule: Q01DX005 (ip), vehicle: Klucel (hydroxypropylcellulose) (HPC) 98 % of control

CCN1C(=O)N(CC)C2(CC(=O)c3ccccc3O2)C1=O (stereo not given)
inactive: [14] 111 % of control | [15] 108 % of control | [16] 110 % of control

N#CCCn1nnc2ccccc21
inactive: dose: 6.25 mg/kg/injection, schedule: Q01DX009 (ip), vehicle: Klucel (hydroxypropylcellulose) (HPC) 91 % of control | dose: 12.5 mg/kg/injection, schedule: Q01DX009 (ip), vehicle: Klucel (hydroxypropylcellulose) (HPC) 94 % of control | dose: 25.0 mg/kg/injection, schedule: Q01DX009 (ip), vehicle: Klucel (hydroxypropylcellulose) (HPC) 95 % of control | [1] 88 % of control

CCOC(=O)c1ccccc1-n1nnc(C#N)c1N
inactive: [11] 105 % of control | [12] 115 % of control

Cc1cc2c(cc1C)NC1=C(N2)OC(c2ccc(C3OC4=C(Nc5cc(C)c(C)cc5N4)C3=O)cc2)C1=O (stereo not given)
inactive: dose: 60.0 mg/kg/injection, schedule: Q01DX005 (ip), vehicle: Klucel (hydroxypropylcellulose) (HPC) 92 % of control | dose: 120.0 mg/kg/injection, schedule: Q01DX005 (ip), vehicle: Klucel (hydroxypropylcellulose) (HPC) 92 % of control | dose: 240.0 mg/kg/injection, schedule: Q01DX005 (ip), vehicle: Klucel (hydroxypropylcellulose) (HPC) 93 % of control

O=C(Nc1cccc(C(F)(F)F)c1)Oc1ccc(Cl)c2cccnc12
inactive: [8] 99 % of control | [9] 98 % of control | [10] 105 % of control

CNC(=O)OCc1c(COC(=O)NC)c(-c2ccc(Cl)c(Cl)c2)n2c1SCC2
inactive: [7] 106 % of control and 123 % of control

CC(Cc1ccccc1)N(C)Cc1ccc(-c2ccccc2)o1 (stereo not given)
inactive: [8] 100 % of control | [9] 108 % of control | [10] 109 % of control

Cn1c2nc(-[n+]3ccc(N4CCOCC4)cc3)nc-2c([O-])n(C)c1=O
inactive: dose: 100.0 mg/kg/injection, schedule: Q04DX003 (ip), vehicle: saline 100 % of control | dose: 200.0 mg/kg/injection, schedule: Q04DX003 (ip), vehicle: saline 101 % of control | dose: 400.0 mg/kg/injection, schedule: Q04DX003 (ip), vehicle: saline 100 % of control

CCOC(=O)N1C=CN(C(=O)OCC)C1c1nccn1C(=O)OCC
inactive: [2] 100 % of control | [4] 96 % of control | [6] 105 % of control
